Assay results: patent US8119647B2, “Fused pyrimidineone compounds as TRPV3 modulators” (Glenmark Pharmaceuticals S.A., priority 2008, dated 2012)

Target: T1, Human TRPV3 (Homo sapiens, UniProt Q8NET8)
T1 construct: expressed in transfected cells; host or cells: CHO cells (G-418 selection)
T1 sequence (Q8NET8 1-790): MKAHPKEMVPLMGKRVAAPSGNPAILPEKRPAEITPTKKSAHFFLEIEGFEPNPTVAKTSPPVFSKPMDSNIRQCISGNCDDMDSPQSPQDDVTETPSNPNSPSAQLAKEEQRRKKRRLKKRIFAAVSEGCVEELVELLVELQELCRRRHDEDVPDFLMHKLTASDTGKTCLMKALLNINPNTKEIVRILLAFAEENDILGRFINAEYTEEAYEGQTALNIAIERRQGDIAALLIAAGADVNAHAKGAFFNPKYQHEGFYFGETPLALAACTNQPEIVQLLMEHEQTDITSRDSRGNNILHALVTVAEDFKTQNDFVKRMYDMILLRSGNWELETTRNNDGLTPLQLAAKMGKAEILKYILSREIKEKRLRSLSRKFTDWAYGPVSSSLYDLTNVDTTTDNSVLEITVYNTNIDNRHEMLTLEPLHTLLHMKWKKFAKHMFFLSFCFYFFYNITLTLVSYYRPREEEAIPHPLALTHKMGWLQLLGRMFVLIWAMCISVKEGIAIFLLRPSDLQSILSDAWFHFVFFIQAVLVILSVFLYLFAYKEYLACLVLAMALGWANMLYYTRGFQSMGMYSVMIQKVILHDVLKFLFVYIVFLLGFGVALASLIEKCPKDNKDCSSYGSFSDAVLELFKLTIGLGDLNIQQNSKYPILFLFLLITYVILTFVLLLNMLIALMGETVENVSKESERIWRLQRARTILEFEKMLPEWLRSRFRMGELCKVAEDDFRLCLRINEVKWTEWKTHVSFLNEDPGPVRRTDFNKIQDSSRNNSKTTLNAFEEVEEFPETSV
Assay: Screening for TRPV3 antagonist using the 45Calcium uptake assay (inhibition of 2-APB induced cellular uptake of radioactive calcium)
Type: cell-based
Conditions: human TRPV3 expressing CHO cells, 2-APB 500 μM; for inhibition at 1 µM / Percentage inhibition at 1.0 μM: 1.0 μM test compound; for inhibition at 1 µM: read-out: Percentage inhibition at 1.0 μM; for inhibition at 10 µM / Percentage inhibition at 10.0 μM: 10.0 μM test compound; for inhibition at 10 µM: read-out: Percentage inhibition at 10.0 μM; for IC50: class symbols
Summary of the method: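 CHO cells stably expressing human TRPV3, preincubated 10 min with test compound, then 2-APB (500 μM final) plus 5 μCi/ml 45Ca2+ for 4 min in DMEM/F-12 with 1.8 mM CaCl2; 0.5% DMSO final. Lysate radioactivity by scintillation counting. IC50 by nonlinear regression of % maximal response; % inhibition at 1.0 and 10.0 μM.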

Structure (SMILES)	inhibition at 1 µM	inhibition at 10 µM	IC50	Percentage inhibition at 1.0 μM	Percentage inhibition at 10.0 μM
CCCCCOc1c(/C=C/c2nc3sccn3c(=O)c2-c2ccc(OC(F)(F)F)cc2)cccc1OC [Example 55, 7-[(E)-2-(3-Methoxy-2-pentyloxyphenyl)-1-ethenyl]-6-[4-(trifluoromethoxy)phenyl]-5H-[1,3]thiazolo[3,2-a]pyrimidin-5-one]	81.7%	92.8%	< 250 nM	–	–
COc1cccc(/C=C/c2nc3sccn3c(=O)c2-c2ccc(OC(F)(F)F)cc2)c1OCCCCF [Example 56, 4-7-[(E)-2-{2-(4-Fluorobutoxy)-3-methoxyphenyl}-1-ethenyl]-6-[4-(trifluoromethoxy)phenyl]-5H-[1,3]thiazolo[3,2-a]pyrimidin-5-one]	–	–	250 to 500 nM	80.9%	93.5%
CCCCOc1c(/C=C/c2nc3sccn3c(=O)c2-c2ccc(OC(F)(F)F)cc2)cccc1OC [Example 57, 7-[(E)-2-(2-Butoxy-3-methoxyphenyl)-1-ethenyl]-6-[4-(trifluoromethoxy)phenyl]-5H-[1,3]thiazolo[3,2-a]pyrimidin-5-one]	79.4%	91.9%	< 250 nM	–	–
COc1cccc(/C=C/c2nc3sccn3c(=O)c2-c2ccc(OC(F)(F)F)cc2)c1OCC1CC1 [Example 58, 7-{(E)-2-[2-(Cyclopropylmethoxy)-3-methoxyphenyl}-1-ethenyl]-6-(4-trifluoromethoxyphenyl)-5H-[1,3]thiazolo[3,2-a]pyrimidin-5-one]	92.8%	95.9%	< 250 nM	–	–
O=c1c(-c2ccc(OC(F)(F)F)cc2)c(/C=C/c2cccc(O)c2O)nc2sccn12 [Example 59]	–	–	–	3.68%	0.00%
O=c1c(-c2ccc(OC(F)(F)F)cc2)c(/C=C/c2cccc(O)c2OCC2CC2)nc2sccn12 [Example 60]	–	–	–	41.32%	81.57%
CCOc1cccc(/C=C/c2nc3sccn3c(=O)c2-c2ccc(OC(F)(F)F)cc2)c1OCC1CC1 [Example 61, 7-{(E)-2-[2-(Cyclopropylmethoxy)-3-ethoxyphenyl}-1-ethenyl]-6-(4-trifluoromethoxy-phenyl)-5H-[1,3]thiazolo[3,2-a]pyrimidin-5-one]	22.7%	60.6%	–	–	–
CCOCCOc1cccc(/C=C/c2nc3sccn3c(=O)c2-c2ccc(OC(F)(F)F)cc2)c1OCC1CC1 [Example 62, 7-{(E)-2-[2-(Cyclopropylmethoxy)-3-(2-ethoxyethoxy)phenyl]-1-ethenyl}-6-(4-trifluoro-methoxyphenyl)-5H-[1,3]thiazolo[3,2-a]pyrimidin-5-one]	–	–	–	30.6%	55.9%
O=c1c(-c2ccc(OC(F)(F)F)cc2)c(/C=C/c2cccc(OC(F)F)c2OCC2CC2)nc2sccn12 [Example 63, 7-{(E)-2-[2-(Cyclopropylmethoxy)-3-difluoromethoxyphenyl]-1-ethenyl}-6-(4-trifluoromethoxyphenyl)-5H-[1,3]thiazolo[3,2-a]pyrimidin-5-one]	81.4%	91.8%	< 250 nM	–	–
O=c1c(-c2ccc(OC(F)(F)F)cc2)c(/C=C/c2cccc(OCC3CC3)c2OCC2CC2)nc2sccn12 [Example 64, 7-{(E)-2-[2-(Cyclopropylmethoxy)-3-(cyclopropylmethoxy)phenyl]-1-ethenyl}-6-(4-trifluoromethoxyphenyl)-5H-[1,3]thiazolo[3,2-a]pyrimidin-5-one]	16.3%	21.1%	–	–	–
N#CCCCOc1cccc(/C=C/c2nc3sccn3c(=O)c2-c2ccc(OC(F)(F)F)cc2)c1OCC1CC1 [Example 65, 7-{(E)-2-[2-(Cyclopropylmethoxy)-3-(3-cyanopropoxy)phenyl]-1-ethenyl}-6-(4-trifluoromethoxyphenyl)-5H-[1,3]thiazolo[3,2-a]pyrimidin-5-one]	15.4%	22%	–	–	–
CCCOc1cccc(/C=C/c2nc3sccn3c(=O)c2-c2ccc(OC(F)(F)F)cc2)c1OCC1CC1 [Example 66, 7-{(E)-2-[2-(Cyclopropylmethoxy)-3-propoxyphenyl}-1-ethenyl]-6-(4-trifluoromethoxy-phenyl)-5H-[1,3]thiazolo[3,2-a]pyrimidin-5-one]	23.4%	34.1%	–	–	–
COc1cccc(/C=C/c2nc3sccn3c(=O)c2-c2ccc(OC(F)(F)F)cc2)c1OCC1CCC1 [Example 67, 7-[(E)-2-{2-Cyclobutylmethoxy-3-methoxyphenyl}-1-ethenyl]-6-[4-(trifluoromethoxy)-phenyl]-5H-[1,3]thiazolo[3,2-a]pyrimidin-5-one]	80.2%	92.2%	< 250 nM	–	–
COc1cccc(/C=C/c2nc3sccn3c(=O)c2-c2ccc(OC(F)(F)F)cc2)c1OC1CCCC1 [Example 68]	75.8%	83.6%	< 250 nM	–	–
COc1cccc(/C=C/c2nc3sccn3c(=O)c2-c2ccc(OC(F)(F)F)cc2)c1O [Example 69, 7-[(E)-2-(2-Hydroxy-3-methoxyphenyl)-1-ethenyl]-6-[4-(trifluoromethoxy)phenyl]-5H-[1,3]thiazolo[3,2-a]pyrimidin-5-one]	51.5%	91.5%	–	–	–
COc1cccc(/C=C/c2nc3sccn3c(=O)c2-c2ccc(OC(F)(F)F)cc2)c1OCCC(F)(F)F [Example 70, 7-[(E)-2-{3-Methoxy-2-(2-trifluoromethylethoxy)phenyl}-1-ethenyl]-6-[4-(trifluoromethoxy)phenyl]-5H-[1,3]thiazolo[3,2-a]pyrimidin-5-one]	90.8%	97.9%	< 250 nM	–	–
COc1cccc(/C=C/c2nc3sccn3c(=O)c2-c2ccc(OC(F)(F)F)cc2)c1OCC1CCCCC1 [Example 71, 7-[(E)-2-(2-Cyclohexylmethoxy-3-methoxyphenyl)-1-ethenyl]-6-[4-(trifluoromethoxy)phenyl]-5H-[1,3]thiazolo[3,2-a]pyrimidin-5-one]	61.1%	80.8%	–	–	–
COc1cccc(/C=C/c2nc3sccn3c(=O)c2-c2ccc(OC(F)(F)F)cc2)c1OC1CCCCC1 [Example 72, 7-[(E)-2-(2-Cyclohexyloxy-3-methoxyphenyl)-1-ethenyl]-6-[4-(trifluoromethoxy)phenyl]-5H-[1,3]thiazolo[3,2-a]pyrimidin-5-one]	58.1%	82.1%	250 to 500 nM	–	–
COCCOc1c(/C=C/c2nc3sccn3c(=O)c2-c2ccc(OC(F)(F)F)cc2)cccc1OC [Example 73, 7-[(E)-2-{3-Methoxy-2-(2-methoxyethoxy)phenyl}-1-ethenyl]-6-[4-(trifluoromethoxy)-phenyl]-5H-[1,3]thiazolo[3,2-a]pyrimidin-5-one]	79.2%	94.9%	250 to 500 nM	–	–
COc1cccc(/C=C/c2nc3sc(C)cn3c(=O)c2-c2ccc(OC(F)(F)F)cc2)c1OCC1CC1 [Example 75, 7-[(E)-2-(2-Cyclopropylmethoxy-3-methoxyphenyl)-1-ethenyl]-2-methyl-6-[4-(trifluoromethoxy)phenyl]-5H-[1,3]thiazolo[3,2-a]pyrimidin-5-one]	86.3%	90.4%	< 250 nM	–	–
COc1cccc(/C=C/c2nc3scc(C)n3c(=O)c2-c2ccc(OC(F)(F)F)cc2)c1OCC1CC1 [Example 76, 7-[(E)-2-(2-Cyclopropylmethoxy-3-methoxyphenyl)-1-ethenyl]-3-methyl-6-[4-(trifluoromethoxy)phenyl]-5H-[1,3]thiazolo[3,2-a]pyrimidin-5-one]	61.9%	79.3%	–	–	–
COc1cccc(/C=C/c2nc3sc(C)c(C)n3c(=O)c2-c2ccc(OC(F)(F)F)cc2)c1OCC1CC1 [Example 77, 7-[(E)-2-(2-Cyclopropylmethoxy-3-methoxyphenyl)-1-ethenyl]-2,3-dimethyl-6-[4-(trifluoromethoxy)phenyl]-5H-[1,3]thiazolo[3,2-a]pyrimidin-5-one]	24.7%	44%	–	–	–
COc1cccc(/C=C/c2nc3sc(Cl)cn3c(=O)c2-c2ccc(OC(F)(F)F)cc2)c1OCC(C)(C)C [Example 78, 2-Chloro-7-[(E)-2-(2-(2,2-dimethylpropoxy)-3-methoxyphenyl)vinyl]-6-[4-(trifluoromethoxy)phenyl]-5H-[1,3]thiazolo[3,2-a]pyrimidin-5-one]	27.1%	47.5%	–	–	–
